Results on 1 compound are retold here after paper PMC9599613 (Biomolecules, 2022).

Test [1] in a line: DPPH free radical scavenging assay. The procedure:
The antioxidant potentials of isolated compounds (phytosteroids 1 and 2) were determined following the DPPH standard assay. Initially, DPPH (24 mg) was dissolved in methanol (100 mL). Stock solutions of the test compounds were prepared in different dilutions (62.50–1000 μg/mL). From each dilution, 1 mL was mixed with 1 mL of the DPPH solution. The solution mixtures were incubated at room temperature for 0.5 h. Afterward, absorbance was recorded at 517 nm with a UV-visible spectrophotometer. Ascorbic acid was the standard drug, whereas the DPPH solution without the compound was negative control. The percent radical scavenging potential of the test compounds was calculated using the following formula: % DPPH activity=X−X1/X×100 where X = absorbance of the control, and X1 = absorbance of the test compound.
For orientation: The DPPH test is a chemical assay of radical scavenging.

Test [2] deals with T1, human recombinant 5-LOX (Homo sapiens, UniProt P09917).
T1 sequence (P09917 1-674): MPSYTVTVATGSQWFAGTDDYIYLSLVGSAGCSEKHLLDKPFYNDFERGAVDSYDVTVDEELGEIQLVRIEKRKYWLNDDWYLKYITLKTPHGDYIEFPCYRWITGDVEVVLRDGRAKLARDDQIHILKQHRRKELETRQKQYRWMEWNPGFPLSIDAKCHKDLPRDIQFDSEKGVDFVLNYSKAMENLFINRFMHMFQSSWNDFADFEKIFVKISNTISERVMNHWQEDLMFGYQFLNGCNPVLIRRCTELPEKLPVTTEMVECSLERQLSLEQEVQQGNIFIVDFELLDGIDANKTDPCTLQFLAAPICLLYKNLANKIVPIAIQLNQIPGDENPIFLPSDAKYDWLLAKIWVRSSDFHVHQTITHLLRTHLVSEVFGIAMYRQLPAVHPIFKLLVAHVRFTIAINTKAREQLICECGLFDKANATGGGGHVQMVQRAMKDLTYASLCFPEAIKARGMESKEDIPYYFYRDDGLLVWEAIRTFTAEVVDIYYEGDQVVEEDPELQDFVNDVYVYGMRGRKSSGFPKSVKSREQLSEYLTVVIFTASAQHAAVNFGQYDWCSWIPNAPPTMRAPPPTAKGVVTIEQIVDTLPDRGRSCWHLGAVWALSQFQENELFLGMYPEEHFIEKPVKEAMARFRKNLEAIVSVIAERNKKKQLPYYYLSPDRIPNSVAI
The experiment in a line: biochemical. The procedure:
The lipoxygenase assay on our test compounds was performed by utilizing human recombinant 5-LOX [65]. […] The enzyme solution with a concentration of 10,000 U/mL was prepared, whereas 80 mM linoleic acid solution was used as a substrate. Solutions were prepared in a phosphate buffer (50 mM) with a pH of 6.3, which was also utilized as the blank. To start, various concentrations of our test samples were dissolved in 0.25 mL of the buffer, to which 0.25 mL enzyme solution was added and incubated at 25 °C for 5 min. Afterward, the substrate solution (0.1 mL) was added to the mixture and shaken well. […] In this assay, the standard drug was montelukast, and using the following formula, the % inhibitions were calculated: % enzyme inhibition=X−X1/X×100 where X = absorbance of the negative control (with no test sample), and X1 = absorbance of the test compound.

Test [3] deals with T2, acetylcholinesterase (AChE) (Electrophorus electricus, UniProt O42275).
T2 construct: acetylcholinesterase (AChE, obtained from Electrophorus electricus); from tissue
Put plainly: Anticholinesterase assay (Ellman's), AChE inhibition. It counts as biochemical. The procedure: This enzyme method relied on the hydrolytic of acetyl cholinethioiodide (ATChI) by acetylcholinesterase and butyrylthiocholine iodide (BTchI) by butyrylcholinesterase. As a result of this breakdown, 5-thio-2-nitrobenoate anions formed. […] The absorption was measured with a spectrophotometer, as per the protocols. […] An amount of 0.1 M phosphate buffer (8.0 ± 0.1 pH) solution was prepared, whose final pH was adjusted by using the KOH solution.
In this assay, 50 µL enzyme solution and 50 µL DTNB reagent were added to 1 mL test samples in a cuvette and then incubated at 30 °C for 15 min. Afterward, a 50 µL substrate solution was added to the mixture.
A general note: In Ellman's method for cholinesterases, released thiocholine reacts with DTNB.

T2 sequence (O42275 24-633): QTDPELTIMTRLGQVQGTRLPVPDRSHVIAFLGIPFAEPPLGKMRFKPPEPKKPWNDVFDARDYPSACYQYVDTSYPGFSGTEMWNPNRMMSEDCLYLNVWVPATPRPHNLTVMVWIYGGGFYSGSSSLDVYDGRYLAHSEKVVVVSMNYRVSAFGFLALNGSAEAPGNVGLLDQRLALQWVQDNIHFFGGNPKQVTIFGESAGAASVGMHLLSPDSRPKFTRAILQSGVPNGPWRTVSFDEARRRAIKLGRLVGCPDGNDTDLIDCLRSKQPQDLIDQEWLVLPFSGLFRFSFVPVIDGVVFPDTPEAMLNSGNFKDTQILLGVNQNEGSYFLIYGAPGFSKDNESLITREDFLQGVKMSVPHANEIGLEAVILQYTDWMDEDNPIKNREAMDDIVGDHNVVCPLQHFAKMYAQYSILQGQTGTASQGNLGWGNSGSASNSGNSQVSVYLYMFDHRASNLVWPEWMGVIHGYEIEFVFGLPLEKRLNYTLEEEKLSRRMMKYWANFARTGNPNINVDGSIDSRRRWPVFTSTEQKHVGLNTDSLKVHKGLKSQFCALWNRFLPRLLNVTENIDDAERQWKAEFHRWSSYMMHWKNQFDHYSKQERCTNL

With `CCC(CCC(C)C1CCC2C3CCC4=CC(=O)CCC4(C)C3CCC12C)C(C)C` (stereo not shown) [Compound 2, 17-(5-ethyl-6-methylheptan-2-yl)-10,13-dimethyl-1,2,6,7,8,9,10,11,12,13,14,15,16,17-tetradecahydro-3H-cyclopenta[a]phenanthren-3-one], the “DPPH IC50” value in test [1] is 218.83 µg/mL. Further, the “Percent DPPH Activity (mean ± SEM)” value is given as 33.00 ± 1.15 % in test [1] (62.5 μg/mL); 42.67 ± 0.89 % in test [1] (125 μg/mL); 49.00 ± 0.58 % in test [1] (250 μg/mL); 63.03 ± 0.23 % in test [1] (500 μg/mL); 71.33 ± 0.49 % in test [1] (1000 μg/mL); 71.33 ± 0.49% in test [1] (1000 μg/mL, listed as compound 2). The figures for the IC50 in test [2] (read-out: 5-LOX IC50 (converted)) and in test [3] were 21.1 µM and 35.2 µM, respectively. For the same compound, the inhibition at 62.5 µg/mL in test [2] (read-out: % 5-LOX Inhibition) worked out at 63.47 ± 0.56%. Moreover, the inhibition at 125 µg/mL in test [2] (read-out: % 5-LOX Inhibition) came to 67.74 ± 0.61%. Besides, the inhibition at 250 µg/mL in test [2] (read-out: % 5-LOX Inhibition) is 73.67 ± 0.61%. In test [2] (read-out: % 5-LOX Inhibition), the inhibition at 500 µg/mL was found to be 78.76 ± 0.58%. Besides, the inhibition at 1000 µg/mL in test [2] (read-out: % 5-LOX Inhibition) came out at 85 ± 0.3%. Moreover, the “AChE inhibition (%)” value in test [3] (62.5 μg/mL) came to 58.12 ± 0.34 %; in test [3] (125 μg/mL) it was 63.47 ± 0.49 %; in test [3] (250 μg/mL), 68.75 ± 0.14 %; in test [3] (500 μg/mL) it was 75.59 ± 0.30 %; in test [3] (1000 μg/mL), 80.85 ± 0.18 %.

For orientation: IC50 means the concentration that inhibits the measured activity by half. As a reminder, the inhibition is how much of the control response was suppressed.
